What was measured:
[1] = oral pharmacokinetics in male CD1 mice (plasma, LC/MS/MS); format: in vivo; conditions: oral 10 mg/kg; for F: fraction of the dose that enters systemic circulation
[2] = tested on: MiaPaCa2 cells; assay: cell-based HT lactate assay, colorimetric/fluorometric detection (inhibition of lactate production); conditions: Homo sapiens, MIA PaCa-2; class symbols, 0 to 3 pluses
[3] = target: Human LDHA (Homo sapiens (Human), UniProt P00338); assay: human LDHA primary biochemical assay (resazurin/diaphorase coupled, fluorescence); conditions: LDHA inhibitory activity, activity level based on IC50 (Table 7)
Text: Test compounds were placed in a Greiner Bio-One (Monroe, N.C.) 1536-well black solid bottom assay plate. 200 millimolar (mM) Tris HCl, pH 7.4, 100 micromolar […] EDTA and 0.01% TWEEN-20™, final concentration, was used as the assay buffer. The LDHA reagent was 2 nanomolar (nM) Human LDHA (Meridian Life Science, Inc., Memphis, Tenn.), final concentration, in assay buffer.

| Structure (SMILES) | IC50 [2] | IC50 [3] | AUC(0-t) ([1]; mouse, plasma) | Cmax ([1]; mouse, plasma) | F [1] |
| --- | --- | --- | --- | --- | --- |
| NS(=O)(=O)c1ccc(Cc2c(-c3cccc(-c4ccccc4)c3)nn(-c3nc(C(=O)O)cs3)c2C(F)(F)F)cc1 [Compound 42, 2-(3-([1,1′-biphenyl]-3-yl)-4-(4-sulfamoylbenzyl)-5-(trifluoromethyl)-1H-pyrazol-1-yl)thiazole-4-carboxylic acid] |  |  | 1210 ng·h/mL | 159 ng/mL | 34% |
| CCOC(=O)c1csc(-n2nc(-c3cccc(-c4ccccc4)c3)c(Cc3ccc(S(N)(=O)=O)cc3)c2C(F)(F)F)n1 [Compound 141, ethyl 2-(3-([1,1′-bipheny]-3-yl)-4-(4-sulfamoylbenzyl)-5-(trifluoromethyl)-1H-pyrazol-1-yl)thiazole-4-carboxylate] |  |  |  |  | 69% |
| NS(=O)(=O)c1ccc(Cc2c(-c3cccc(Oc4cccc(F)c4)c3)nn(-c3nc(C(=O)O)cs3)c2CC2CC2)cc1 [Compound 526, 2-(5-(cyclopropylmethyl)-3-(3-(3-fluorophenoxy)phenyl)-4-(4-sulfamoylbenzyl)-1H-pyrazol-1-yl)thiazole-4-carboxylic Acid] | 10 to 57 µM | 100 to 1000 nM |  |  |  |
| NS(=O)(=O)c1ccc(Cc2c(-c3ccc(F)c(OCc4ccc(F)cc4)c3)nn(-c3nc(C(=O)O)cs3)c2CC2CC2)cc1 [Compound 527, 2-(5-(cyclopropylmethyl)-3-(4-fluoro-3-((4-fluorobenzyl)oxy)phenyl)-4-(4-sulfamoylbenzyl)-1H-pyrazol-1-yl)thiazole-4-carboxylic Acid] | 1 to 10 µM | < 100 nM |  |  |  |
| NS(=O)(=O)c1ccc(Cc2c(-c3ccc(F)c(C(F)(F)F)c3)nn(-c3nc(C(=O)O)cs3)c2CC2CC2)cc1F [Compound 542, 2-(5-(cyclopropylmethyl)-3-(4-fluoro-3-(trifluoromethyl)phenyl)-4-(3-fluoro-4-sulfamoylbenzyl)-1H-pyrazol-1-yl)thiazole-4-carboxylic acid] | 1 to 10 µM | < 100 nM |  |  |  |
| CC(C)(C)NC(=O)c1cc(-c2nn(-c3nc(C(=O)O)cs3)c(CC3CC3)c2Cc2ccc(S(N)(=O)=O)c(F)c2)ccc1F [Compound 543, 2-(3-(3-(tert-butylcarbamoyl)-4-fluorophenyl)-5-(cyclopropylmethyl)-4-(3-fluoro-4-sulfamoylbenzyl)-1H-pyrazol-1-yl)thiazole-4-carboxylic acid] | 1 to 10 µM | < 100 nM |  |  |  |
| NS(=O)(=O)c1ccc(Cc2c(-c3ccc(F)c(C(=O)NCc4ccccc4)c3)nn(-c3nc(C(=O)O)cs3)c2CC2CC2)cc1F [Compound 544, 2-(3-(3-(benzylcarbamoyl)-4-fluorophenyl)-5-(cyclopropylmethyl)-4-(3-fluoro-4-sulfamoylbenzyl)-1H-pyrazol-1-yl)thiazole-4-carboxylic acid] | 1 to 10 µM | < 100 nM |  |  |  |
| NS(=O)(=O)c1ccc(Cc2c(-c3ccc(F)c(C(=O)N4CCCC4)c3)nn(-c3nc(C(=O)O)cs3)c2CC2CC2)cc1F [Compound 545, 2-(5-(cyclopropylmethyl)-3-(4-fluoro-3-(pyrrolidine-1-carbonyl)phenyl)-4-(3-fluoro-4-sulfamoylbenzyl)-1H-pyrazol-1-yl)thiazole-4-carboxylic acid] | 10 to 57 µM | < 100 nM |  |  |  |

Second part, led by results:

| IC50 [2] | IC50 [3] | Structure (SMILES) | AUC(0-t) ([1]; mouse, plasma) | Cmax ([1]; mouse, plasma) | F [1] |
| --- | --- | --- | --- | --- | --- |
| 1 to 10 µM | < 100 nM | NS(=O)(=O)c1ccc(Cc2c(-c3ccc(F)c(Oc4ccccc4)c3)nn(-c3nc(C(=O)O)cs3)c2CC2CC2)cc1 [Compound 508, 2-(5-(cyclopropylmethyl)-3-(4-fluoro-3-phenoxyphenyl)-4-(4-sulfamoylbenzyl)-1H-pyrazol-1-yl)thiazole-4-carboxylic Acid] |  |  |  |
| < 1 µM | < 100 nM | NS(=O)(=O)c1ccc(Cc2c(-c3ccc(F)c(Oc4cccc(F)c4)c3)nn(-c3nc(C(=O)O)cs3)c2CC2CC2)cc1F [Compound 509, 2-(5-(cyclopropylmethyl)-3-(4-fluoro-3-(3-fluorophenoxy)phenyl)-4-(3-fluoro-4-sulfamoylbenzyl)-1H-pyrazol-1-yl)thiazole-4-carboxylic Acid] |  |  |  |
| < 1 µM | < 100 nM | Cc1ccc(Oc2cc(-c3nn(-c4nc(C(=O)O)cs4)c(CC4CC4)c3Cc3ccc(S(N)(=O)=O)c(F)c3)ccc2F)cc1 [Compound 510, 2-(5-(cyclopropylmethyl)-3-(4-fluoro-3-(p-tolyloxy)phenyl)-4-(3-fluoro-4-sulfamoylbenzyl)-1H-pyrazol-1-yl)thiazole-4-carboxylic Acid] |  |  |  |
| 1 to 10 µM | < 100 nM | NS(=O)(=O)c1ccc(Cc2c(-c3ccc(F)c(Oc4ccc(F)cc4)c3)nn(-c3nc(C(=O)O)cs3)c2CC2CC2)cc1F [Compound 511, 2-(5-(cyclopropylmethyl)-3-(4-fluoro-3-(4-fluorophenoxy)phenyl)-4-(3-fluoro-4-sulfamoylbenzyl)-1H-pyrazol-1-yl)thiazole-4-carboxylic Acid] |  |  |  |
| < 1 µM | < 100 nM | NS(=O)(=O)c1ccc(Cc2c(-c3ccc(F)c(Oc4ccc(C(F)(F)F)cc4)c3)nn(-c3nc(C(=O)O)cs3)c2CC2CC2)cc1F [Compound 512, 2-(5-(cyclopropylmethyl)-3-(4-fluoro-3-(4-(trifluoromethyl)phenoxy)phenyl)-4-(3-fluoro-4-sulfamoylbenzyl)-1H-pyrazol-1-yl)thiazole-4-carboxylic Acid] |  |  |  |
| 1 to 10 µM | 100 to 1000 nM | NS(=O)(=O)c1ccc(Cc2c(-c3cc(F)cc(-c4cccc(F)c4)c3)nn(-c3nc(C(=O)O)cs3)c2CC2CC2)cc1 [Compound 523, 2-(5-(cyclopropylmethyl)-3-(3′,5-difluoro-[1,1′-biphenyl]-3-yl)-4-(4-sulfamoylbenzyl)-1H-pyrazol-1-yl)thiazole-4-carboxylic acid] |  |  |  |
| < 1 µM | < 100 nM | NS(=O)(=O)c1ccc(Cc2c(-c3ccc(F)c(OCc4cccc(F)c4)c3)nn(-c3nc(C(=O)O)cs3)c2CC2CC2)cc1F [Compound 528, 2-(5-(cyclopropylmethyl)-3-(4-fluoro-3-((3-fluorobenzyl)oxy)phenyl)-4-(3-fluoro-4-sulfamoylbenzyl)-1H-pyrazol-1-yl)thiazole-4-carboxylic Acid] |  |  |  |
